In patent US12378250B2, “Tricyclic compound as IRAK4 inhibitor” (KOREA RESEARCH INSTITUTE OF CHEMICAL TECHNOLOGY, priority 2018, dated 2025):

Experiments:
[1] = test system: TNF-α secretion, peripheral blood mononuclear cells (PBMCs); test: Suppression of TNF-α secretion in LPS-treated PBMCs (ELISA); format: cell-based; conditions: PBMC, 100 ng/ml LPS, 24 hours, read-out: TNF-α, % inhibition degree
In short: (§1)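 PBMCs (1×10^5 cells/well for TNF-α, 2×10^5 for IFN-α) preincubated 30 min with compound, then stimulated with 100 ng/ml LPS for 24 h (TNF-α) or 500 nM ODN2216 for 72 h (IFN-α). Cytokines in supernatants quantified by sandwich ELISA with TMB, absorbance 450/570 nm.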

[2] = test system: IFN-α secretion, peripheral blood mononuclear cells (PBMCs); test: Suppression of IFN-α secretion in ODN2216-treated PBMCs (ELISA); format: cell-based; conditions: PBMC, 500 nM ODN2216, 72 hours, read-out: IFN-α, % inhibition degree
In short: as §1

[3] = test system: TMD-8 cells (B-cell lymphoma cell line); test: Antitumor effect in SCID mice transplanted with TMD-8; format: in vivo
Experimental: As experimental animals, severe combined immunodeficiency (SCID) mice (C.B-17/IcrCrj-scid, female) were purchased from Charles River Laboratories Japan, Inc., and used. The mice were acclimatized for 2 weeks or more in an animal room, where temperature (22±1° C.) and humidity (50±10%) were automatically adjusted, and then used for experiments, and allowed to freely ingest water and feed. This animal experiment was performed with the approval of the Animal Care and Use Committee of the Korea Research Institute of Chemical Technology. As a TMD-8 cell line, which is a B-cell lymphoma cell line, a cell line whose subculture had been maintained in the Korea Research Institute of Chemical Technology was used.
Tumors in SCID mice were induced by transplanting TMD-8 cells at 9×10^6 cells/mouse to the right subcutaneous flank of each animal, and when the size of the transplanted tumor reached about 200 mm^3, drug administration was started ([…]). The test drug was suspended in a solution of 20% PEG400 and 3% Tween 80, and orally administered once a day for 14 days. After the test drug was administered, the diameter of the tumor (that is, a long diameter (a) and a short diameter (b) was measured using a calipers every 2 to 3 days, and according to a mathematical formula [size (mm^3) of tumor=(a×b^2)/2], the size (mm^3) of tumor was calculated, and is illustrated in FIGS. 3 and 4. As control drugs, PF-06650833 (Sigma) and ibrutinib (Medichem Express) were purchased and used, and the statistical significance of the antitumor effect of the test drug was verified using a student's T-test (SigmaStat, Jandel Scientific) program.

SMILES: Fc1cncc(-c2ccc3[nH]c4ncnc(N[C@H]5CC[C@H](N6CCOCC6)CC5)c4c3c2)c1 [Compound 6aaf, 6-(5-fluoropyridin-3-yl)-N-(trans-4-morpholinocyclohexyl)-9H-pyrimido[4,5-b]indole-4-amine]
- inhibition at 0.1 µM ([1]; 0.1 μM): 51%
- inhibition at 1 µM ([1]; 1 μM): 124%
- inhibition at 0.1 µM ([2]; 0.1 μM): 48%
- inhibition at 1 µM ([2]; 1 μM): 96%
- antitumor effect (tumor size) in combination with ibrutinib ([3]; administered in combination with ibrutinib, oral, once a day for 14 days): excellent effect
- change in body weight of the experimental animals ([3]; during the test period): not much change
- antitumor effect (tumor size) compared to PF-06650833 ([3]; oral, once a day for 14 days, TMD-8 xenograft): did not show a significant difference in effect when compared to PF-06650833, but showed a slightly better tendency
